ChEMBL document CHEMBL1131825, “A 2-nitroimidazole carbamate prodrug of 5-amimo-1-(chloromethyl)-3-[(5,6,7-trimethoxyindol-2-yl)carbony l]-1,2-dihydro-3H--benz[E]indole (amino-seco-CBI-TMI) for use with ADEPT and GDEPT” (Bioorg Med Chem Lett, 1999)

Assays:
SK-OV-3 [1] = experiment: In vitro cytotoxicity against SKOV3 cell proliferation after 18 hr exposure in presence of 1 mM NADH + NTR; assay type: functional, cell-based; conditions: Homo sapiens, SK-OV-3, 18 h
SK-OV-3 [2] = experiment: In vitro cytotoxic activity against SKOV3 cell line after 1 hour at less than 0.01 % of oxygen in gas phase; assay type: functional, Homo sapiens
SK-OV-3 [3] = experiment: In vitro cytotoxicity against SKOV3 cell proliferation after 18 hr exposure in absence of reagent; assay type: functional, cell-based; conditions: Homo sapiens, SK-OV-3, 18 h
SK-OV-3 [4] = experiment: In vitro cytotoxic activity against SKOV3 cell line after 4 hours at less than 0.01 % of oxygen in gas phase; assay type: functional, Homo sapiens
SK-OV-3 [5] = experiment: In vitro cytotoxicity against SKOV3 cell proliferation after 18 hr exposure in presence of 1 mM NADH; assay type: functional, cell-based; conditions: Homo sapiens, SK-OV-3, 18 h
SK-OV-3 [6] = experiment: In vitro cytotoxic activity against SKOV3 cell line after 1 hour at 20% oxygen present in gas phase; assay type: functional, Homo sapiens
SC-3 = experiment: In vitro cytotoxicity against SC3.2 cell proliferation after 18 hr exposure; assay type: functional, cell-based, Homo sapiens; conditions: Mus musculus, SC-3, 18 h
SK-OV-3 [7] = experiment: In vitro cytotoxic activity against SKOV3 cell line after 4 hours at 20% oxygen present in gas phase; assay type: functional, Homo sapiens

Question: With COc1cc2cc(C(=O)N3CC(CCl)c4c3cc(NC(=O)OCc3cnc([N+](=O)[O-])n3C)c3ccccc43)[nH]c2c(OC)c1OC (configuration not stated) as the compound, how does the IC50 (SK-OV-3 [1]) read?
Answer: 8 nM

Question: What about the C10 (SK-OV-3 [2]) of the same compound?
Answer: 135 nM

Question: And the IC50 (SK-OV-3 [3])?
Answer: 75 nM

Question: What about the C10 (SK-OV-3 [4]) of the same compound?
Answer: 15 nM

Question: And the IC50 (SK-OV-3 [5])?
Answer: 57 nM

Question: And the C10 (SK-OV-3 [6])?
Answer: 2100 nM

Question: What about the IC50 (SC-3) of the same compound?
Answer: 3.5 nM

Question: And the C10 (SK-OV-3 [7])?
Answer: 600 nM

Question: Which results are given for COc1cc2cc(C(=O)N3CC(CCl)c4c3cc(N)c3ccccc43)[nH]c2c(OC)c1OC (configuration not stated)?
Answer: IC50 (SK-OV-3 [1]): 1.14 nM; IC50 (SK-OV-3 [3]): 1.1 nM; IC50 (SK-OV-3 [5]): 0.96 nM; IC50 (SC-3): 2.17 nM
